In data set [1] the test system is ear weight gain produced by multiple doses of TPA in mice. The experiment in a line: Chronic (multiple dose) TPA mouse ear inflammation assay, ear weight gain. Format: in vivo, mouse (female CD-1). As to conditions: for Decrease in weight relative to TPA treated biopsies: 20 μg HCV/ear; for % Inhibition of Ear Weight Gain, Relative to Hydrocortisone (HCV) = 100%: head prints 1.25 eg/ear. On the procedure:
The acute skin inflammation model described in Example 1, tests the ability of a compound to prevent inflammation and thus must be applied prophylactically. Most clinical situations, however, are present as chronic inflammatory conditions. […] The effects of the compounds of the present invention and Salifluor on chronically inflamed skin was measured in the mouse ear model that utilizes multiple TPA doses over a 10-day period to produce the inflammatory response.
The assay used female CD-1 mice (7-9 weeks of age). Following a 2-week quarantine, mice were randomly assigned to test groups (5 mice/groups). TPA (10 uL of 0.01 TPA in acetone) was administered to both the inner and outer surface of each ear (2μg/ear) on day 0,2,4,7, and 9 on protocol. On Day 7,8 and 9, two applications of test article were applied to each ear 2 and 4 hours after dosing with TPA. The test articles were administered in 10 uL aliquots to both the inner and outer surface of each ear (20 μl total/dose). […] Hydrocortisone-17-valerate (HCV, 20μg/ear) was employed as a positive control. Mice were sacrificed at Day 10 on protocol and uniform punch biopsies (approximately 8 mm dia.) were taken from each ear. While on protocol, dermal irritation was scored semiquantitatively at Day 1,3,5,8, and 10.
(§1) Inhibition of TPA stimulated increased ear weight was used as an initial measure of efficacy for all of the agents tested. One biopsy from each mouse was also quick frozen and stored at -70° C. for later assay of myleoperoxidase, an enzyme associated with infiltrating PMN, or other measure of efficacy. The remaining biopsy from each mouse treated with Trifluorosal or HCV was fixed in formalin and processed for histopathologic evaluation, including measurement of cellular infiltration (PMNs, endothelial cells, macrophages) and epidermal thickness at 20 random sites along the length of the specimen.
Initially, a dose-response curve for multiple doses of TPA to produce mouse ear weight gain was generated in order to determine the concentration of TPA to be employed in the inhibition studies. […] Another major difference between the multiple TPA dose (or chronic assay for inflammation) and the single TPA dose (or acute assay for inflammation) in the mouse ear is sensitivity to Non-steroidal antiinflammatory drugs (NSAIDs) and antihistamines.

The subject of data set [2] is TPA treated mouse ear skin. The experiment in a line: Histopathology of ear biopsies after multiple doses of TPA (epidermal thickness, dermal cellularity). Format: in vivo, mouse (female CD-1). On the procedure: The assay used female CD-1 mice (7-9 weeks of age). Following a 2-week quarantine, mice were randomly assigned to test groups (5 mice/groups). TPA (10 uL of 0.01 TPA in acetone) was administered to both the inner and outer surface of each ear (2μg/ear) on day 0,2,4,7, and 9 on protocol. On Day 7,8 and 9, two applications of test article were applied to each ear 2 and 4 hours after dosing with TPA. The test articles were administered in 10 uL aliquots to both the inner and outer surface of each ear (20 μl total/dose). The candidate drugs were tested at several different concentrations (e.g., 5, 1.25, and 0.125 mg/ear) to determine a maximum effective dose within a range that could be effectively applied. Hydrocortisone-17-valerate (HCV, 20μg/ear) was employed as a positive control. Mice were sacrificed at Day 10 on protocol and uniform punch biopsies (approximately 8 mm dia.) were taken from each ear. While on protocol, dermal irritation was scored semiquantitatively at Day 1,3,5,8, and 10.
as §1
In order to confirm the subjective observations, quantitative determinations of 3 parameters (epidermal thickness, dermal thickness, and dermal cellularity) in the skin of negative controls (acetone), positive controls (TPA), and TPA treated skin treated with 3 doses of test article (Trifluorosal) and hydrocortisone were carried out. Epidermal thickness reflects the reactive proliferative activity induced by TPA in the […]: dermal thickness reflects primarily Ad edema but may also be affected by other phenomena, such as formation of granulation tissue, collagen synthesis, the activity of myofibroblasts, etc. Cellularity of the dermis is frequently used as a surrogate marker of inflammatory changes in the dermis.
Determination of the epidermal thickness was performed under the microscope with a calibrated scale placed in the eyepiece. Ten determinations were carried out in the epidermis covering the outside of the ear using a 40× objective and a 10× eyepiece (400× total). The measurements were taken from the basal side of the basal layer (basement membrane) to the outer side of the last nucleated cell of the […]. The average of the 10 measurements expressed in microns was entered in the table.
Determination of dermal thickness was performed using a similar technique. To avoid variability caused by the difference in sizes between the base and tip of the ear, only 3 measurements were performed in the center of the sample. The measurements were performed from the basement membrane of the external and internal epithelial and therefore include, in addition to both dermis (external and internal), the cartilage.
Cellularity of the dermis was calculated by projecting a calibrated grid into the dermis and counting cells in the known area of the dermis. Areas of hair follicles or sebaceous glands were avoided. Five fields were counted and the results were adjusted to the number of cells in 1,000 square microns.
The results of individual animals were entered in the table and the averages and standard deviation were calculated using an EXCEL database. In addition, the results were also expressed as a percentage of the control (acetone treated). Furthermore, the percentage of inhibition of the test articles were calculated using the following formula: [formula]

The test system of data set [3] is TPA induced mouse ear edema. The experiment in a line: Acute TPA mouse ear inflammation assay, edema (ear weight). Format: in vivo. From the text: The anti-inflammatory effect of selected compounds of this invention were compared to those of Triclosan™ and hydrocortisone in a modified […] (TPA) mouse ear inflammation assay. TPA was used as an inflammogen rather than croton oil because TPA gives a well characterized inflammatory response at very low concentrations. […] This model can therefore be used to study the pharmacokinetics, clinical efficacy and adverse side effects of anti-inflammatory agents. To quantitate inflammation, ear punches from treated animals were used to measure increased ear mass (edema) and myeloperoxidase (MPO) activity. For the inhibition studies, ear biopsies were weighed six hours after treatment with TPA and the simultaneous application of the compound of the present invention. All the compounds were diluted in acetone. Following this, the biopsies were frozen and subsequently used to measure inhibition of MPO activity, an estimate of polymorphonuclear (PMN) […] activity in the affected area. Percent inhibition of edema was calculated as [c-t]/c x 100, where c and t are increases in ear weight in control and treated mice, respectively.
Initially a dose-response curve for TPA-induced mouse ear edema was generated in order to determine the concentration of TPA to be employed in the inhibition studies. TPA produced a theoretical dose-response curve for edema with an ED50 of 80 ng/ear and an ED90 of 200 ng/ear in two separate experiments. ED50 is the dose at which 50% of the maximum effect was observed while ED90 is the dose at which 90% of the maximum effect was observed. […] The ED50 values for the compounds tested are as follows: […]

Data set [4] concerns TPA induced mouse ear edema. As to conditions: cited from earlier work.
Data set [5] is described as follows: Single dose oral tolerance in rats. The conditions noted are these: single dose 2.5 or 0.75 g/kg in 5% CMC, 7 days. Format: in vivo, rat (male weaning Sprague-Dawley). On the procedure: To test for tolerance of the administered compounds, male weaning Sprague-Dawley rats were fed in a single dose of 2.5 or 0.75 g/kg of TMF-12, TMF-10, TMC-10 or TPC-10 in 5% carboxymethyl cellulose (CMC) or CMC alone. […] At completion of the 7 day observation period, necropsies were performed on all animals.

A short description of data set [6]: Solubility of representative compounds in various solvent systems. Format: physicochemical. On the procedure:
The solubility of representative compounds of this invention in various solvent systems was determined. The solvents included ethanol, propylene glycol, SLS, Tween 80™ and combinations thereof.

For data set [7] the following is noted: in vivo; cited from earlier work.
For data set [8], the system named is ear weight gain produced by multiple doses of TPA in mice. The conditions noted are these: cited from earlier work.
[9] abbreviates: aqueous buffer, pH 10 K-buffer @ 35° C.
The mark [10] stands for this setting: aqueous buffer, pH 10 Na-buffer @ 22° C.
[11] abbreviates: organic solvent or mixture, Ethanol @ 19° C.
The mark [12] stands for this setting: organic solvent or mixture, Propylene Glycol @ 20° C.
Setting [13] is: ph 10 na-buffer +0.5% sls, pH 10 Na-buffer @ 22° C. +0.5% SLS.
Where [14] appears, read: inflammogen dose-response, two separate experiments, 6 hours.

`CCCCC(=O)O[C@]1(C(=O)CO)CC[C@H]2[C@@H]3CCC4=CC(=O)CC[C@]4(C)[C@H]3[C@@H](O)C[C@@]21C` [Hydrocortisone 17-valerate, Hydrocortisone-17-valerate, reference compound]: the “Decrease in weight relative to TPA treated biopsies” value in data set [1] (Assay #1) is reported as 71%; in data set [1] (Assay #2) it was 107%. Further, in data set [1] (20μg/ear, first experiment), the “Inhibition of ear weight gain” value was 86%.
With `C[C@]12CCC(=O)C=C1CC[C@@H]1[C@@H]2[C@@H](O)C[C@@]2(C)[C@H]1CC[C@]2(O)C(=O)CO` [Hydrocortisone, reference compound], in data set [2] (0.02 mg/ear), the “% Inhibition, Dermal Cellularity” value is recorded as 78.6% and the “% Inhibition, Epidermal Thickness” value was 58.6%. The “Blood vessel prominence (in words)” value in data set [2] (histopathology) is given as “Blood vessels were not as prominent”. Besides, in data set [2] (histopathology, FIG. 1), the “Cellularity of the dermis (in words)” value is reported as “reduced the epidermal thickness as well as the cellularity of the dermis” and the “Epidermal thickness (in words)” value was “reduced the epidermal thickness”. The “Relative anti-inflammatory potency (in words)” value in data set [3] (acute assay) is given as “the most potent anti-inflammatory agent tested”.
For the molecule `CC(C)Cc1ccc(C(C)C(=O)O)cc1` (stereo not shown) [Ibuprofen], the “Inhibition of acute TPA assay by NSAIDs” value in data set [4] was “inhibited”.
As for `COc1ccc2cc([C@H](C)C(=O)O)ccc2c1` [Naproxen], the “Inhibition of acute TPA assay by NSAIDs” value in data set [4] is listed as “inhibited”.
Consider `CCCCCCCCCCS(=O)(=O)c1ccc(O)c(C(=O)Nc2cccc(C#N)c2)c1` [TMC-10], for which the “% Inhibition of Ear Weight Gain, Actual” value in data set [1] (multiple doses of TPA) was found to be 0%. Also, in data set [1] (multiple doses of TPA), the “% Inhibition of Ear Weight Gain, Relative to Hydrocortisone (HCV) = 100%” value stood at 0%. The Illness or deaths entry in data set [5] is on record as “No illness or deaths occurred”. Further, the solubility – broadly, the dissolved amount per volume that the medium holds – in data set [6] (+0.5% tween 80) was 770 µg/mL; in data set [6] (+1% sls), 4270 µg/mL; in data set [6] (+1.5% tween 80) it was 2240 µg/mL; in data set [6] (+2% SLS + 0.5% Tween 80), 3980 µg/mL; in data set [6] (+2% SLS + 1.0% Tween 80), 4740 µg/mL; in data set [6] (+2% SLS + 2.0% Tween 80), 5050 µg/mL. The solubility is 6680 µg/mL in data set [6] (+2% sls); 4690 µg/mL in data set [6] (+3.0% tween 80); 7900 µg/mL in data set [6] (+4% sls); 5.58 µg/mL in data set [6] (setting [9]); 7.2 µg/mL in data set [6] (setting [10]); 36700 µg/mL in data set [6] (setting [11]). Also, the figures for the solubility in data set [6] (setting [12]) and in data set [6] (setting [13]) were 1940 µg/mL and 3130 µg/mL, respectively.
On to `CCCCCCCCS(=O)(=O)c1ccc(O)c(C(=O)Nc2cccc(C(F)(F)F)c2)c1` [TMF-8], for which, in data set [1] (multiple doses of TPA), the “% Inhibition of Ear Weight Gain, Actual” value was 0% and the “% Inhibition of Ear Weight Gain, Relative to Hydrocortisone (HCV) = 100%” value turned out to be 0%.
`CCCCCCCCCCCCCC(=O)O[C@@H]1[C@@H](C)[C@@]2(O)[C@@H](C=C(CO)C[C@]3(O)C(=O)C(C)=C[C@@H]23)[C@@H]2C(C)(C)[C@]12OC(C)=O` [TPA, 12-tetradecanoyl 13-phorbol acetate, reference compound]: in data set [1] (multiple doses of TPA), the “Dose of TPA producing maximal ear weight gain” value is 2 μg/ear and the “Dose of TPA with marginal effects on ear weight gain” value is listed as “below 1 μg/ear”. Besides, the “Histopathological change produced by multiple doses of TPA” value in data set [2] (multiple doses of TPA) was “dramatic hyperplasia of the epidermis as well as inflammatory changes in the dermis”. In data set [3] (setting [14]), the “ED50 for TPA-induced ear edema” value is 80 ng/ear and the “ED90 for TPA-induced ear edema” value was 200 ng/ear.
For `CCCCCCCCCCS(=O)(=O)c1ccc(O)c(C(=O)Nc2ccc(C#N)cc2)c1` [TPC-10], in data set [1] (multiple doses of TPA), the “% Inhibition of Ear Weight Gain, Actual” value came out at 0%. Besides, in data set [1] (multiple doses of TPA), the “% Inhibition of Ear Weight Gain, Relative to Hydrocortisone (HCV) = 100%” value was determined as 0%. Also, the Illness or deaths result in data set [5] is “No illness or deaths occurred”. Besides, the solubility in data set [6] (+1% sls) was determined as 690 µg/mL; in data set [6] (+2% sls), 910 µg/mL; in data set [6] (+4% sls), 1810 µg/mL; in data set [6] (setting [9]) it was 3.45 µg/mL; in data set [6] (setting [10]) it was 9.16 µg/mL; in data set [6] (setting [11]) it was 11500 µg/mL. Further, the solubility came to 810 µg/mL in data set [6] (setting [12]) and 300 µg/mL in data set [6] (setting [13]).
Regarding `Oc1cc(Cl)ccc1Oc1ccc(Cl)cc1Cl` [Triclosan, 2',4,4'-trichloro-2-hydroxy-diphenyl-ether], the “Anti-inflammatory activity in clinical trials” value in data set [7] is “have been reported to have anti-inflammatory activity in clinical trials”.
In the case of `O=C(O)Cc1ccccc1Nc1c(Cl)cccc1Cl` [diclofenac], the “Sensitivity of chronic TPA assay to NSAIDs” value in data set [8] is on record as “insensitive”.
In the case of `CN1C(C(=O)Nc2ccccn2)=C(O)c2ccccc2S1(=O)=O` [piroxicam], the “Sensitivity of chronic TPA assay to NSAIDs” value in data set [8] is on record as “insensitive”.

The values are drawn from patent US6117859A, “Method of relieving chronic inflammation by using 5-alkylsulfonylsalicylanilides” (The Research Foundation of State University of New York, priority 1999, dated 2000).
